Legend:
[1] = molecular target: T1, 5-HT1A receptor expressed in SF9 cells (Homo sapiens, UniProt P08908); conditions: cited from earlier work
T1 construct: expressed in transfected cells; host or cells: SF9 cells
T1 sequence (P08908 1-422): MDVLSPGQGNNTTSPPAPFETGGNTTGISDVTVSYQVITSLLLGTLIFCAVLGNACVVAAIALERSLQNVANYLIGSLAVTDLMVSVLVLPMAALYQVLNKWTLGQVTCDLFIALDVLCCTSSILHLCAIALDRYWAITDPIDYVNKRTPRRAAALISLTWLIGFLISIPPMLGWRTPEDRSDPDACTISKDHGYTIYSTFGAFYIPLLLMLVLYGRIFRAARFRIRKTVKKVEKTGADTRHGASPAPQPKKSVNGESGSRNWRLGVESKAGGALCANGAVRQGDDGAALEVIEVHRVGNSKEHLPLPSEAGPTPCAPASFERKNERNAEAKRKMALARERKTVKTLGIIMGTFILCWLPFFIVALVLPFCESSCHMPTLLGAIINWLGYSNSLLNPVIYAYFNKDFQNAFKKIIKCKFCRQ

[2] = test system: DRN 5-HT neurons; assay: Example 3: in vivo single-unit recording of DRN 5-HT neurons; parameters: species or system rat; conditions: 8-OH-DPAT 1 μg/kg i.v.; WAY-100635 100 μg/kg i.v.
Description: Burr holes (˜1 mm in diameter) were drilled in the skull overlying the DRN of non-lesioned rats. Prior to experimentation all animals were anesthetized with urethane (1.5 g/kgi.p.) and placed in a stereotaxic apparatus. Bipolar stimulating/recording electrodes were implanted in the frontal cortex and DRN on the right side using a micromanipulator (coordinates from Bregma: AP: 3.2 mm; ML: 0.8 mm lateral; DV: 4.4 mm ventral (frontal cortex) or AP: 7.8 mm; ML 3.1 mm; DV: 7.5 mm with the manipulator angled 30 degrees toward Bregma) as previously described [Chakroborty 2017].
Electrophysiology: Recording microelectrodes were manufactured from 2.0 mm OD borosilicate glass capillary tubing and filled with sodium chloride (2M) solution. […] Temperature was monitored using a rectal probe and maintained at 37 C.° using a heating pad (VI-20F, Fintronics Inc., Orange, CT). […] Once isolated, recordings consisted of basal (pre-drug), saline vehicle, and drug-treatment-(see below) induced changes in spike activity recorded in a series of 3 min duration epochs.
All compounds and physiological 0.9% saline were prepared daily and administered intravenously (i.v.) through the lateral tail vein to enable rapid examination of potential acute effects of vehicle or drug on DRN neuronal activity. […] DRN 5-HT neuron activity was recorded prior to and immediately following drug administration as described above.

[3] = test system: 6-OHDA-lesioned rats, forelimb akinesia; assay: Example 2: stepping test; type: in vivo, rat; conditions: 60 minutes post L-DOPA
Method: 6-OHDA-induced dopaminergic lesions: Adult male Sprague-Dawley rats were randomly assigned to groups receiving either a 6-OHDA or sham lesion. All rats received desipramine (10 mg/kg i.p.) 30 min prior to surgery to prevent the lesioning of norepinephrine neurons by 6-OHDA. A single injection of 6-OHDA (8 μg of 6-OHDA free base in 4 p of 0.1% ascorbic acid) was delivered into the right medial forebrain bundle (coordinates taken from bregma: −4.3 mm AP, 1.6 mm ML, −8.3 mm DV). The same experimental treatment was performed for the sham-operated rats using vehicle (4 μl of 0.1% ascorbic acid). A standard stepping test was used to evaluate the effectiveness of the 6-OHDA lesion.
Rats were treated for 5 consecutive days/week (Mon-Fri), for 2 weeks. On the second day of each week, stepping tests were performed prior to drug administration, and 60 minutes post L-DOPA treatment.

[4] = test system: 6-OHDA-lesioned rats, L-DOPA-induced dyskinesias; assay: Example 2: LIDs scoring in unilateral 6-OHDA-lesioned rats; type: in vivo, rat; conditions: vilazodone 10 mg/kg or escitalopram 12.5 mg/kg + L-DOPA 5 mg/kg, 2 weeks
Method: 6-OHDA-induced dopaminergic lesions: Adult male Sprague-Dawley rats were randomly assigned to groups receiving either a 6-OHDA or sham lesion. […] [[…] 2019]. […] Rats were treated for 5 consecutive days/week (Mon-Fri), for 2 weeks. […] All rats were evaluated three times per week for the presence of L-DOPA-induced dyskinesias (LIDs) (Wed-Fri) and once for the stepping test (Tue). […] Scores were given over 1 min epochs and classified as axial, limb, orolingual and locomotive. […] The severity of each LID was scored using a standard scale. Each dyskinetic behavior was given an intensity and frequency score, which were then multiplied. The average sum of the products of each LID was determined in each animal.

[5] = test system: 6-OHDA-lesioned rats, forelimb akinesia; assay: Experiment 2: forepaw adjusting steps (FAS); type: in vivo, rat; conditions: LD 6 mg/kg alone or with VZD
Description: Forepaw adjusting steps (FAS): The FAS test is a measure of forelimb akinesia performed according to previous protocols (Bishop et al., 2012; Chang et al., 1999). Data are presented as mean percent intact stepping where the sum of the total steps with the lesioned forepaw was divided by the total steps with the unlesioned forepaw multiplied by 100. Lower percent intact scores indicate greater forelimb akinesia. Prior to baseline, rats received 2 acclimation periods. On-treatment FAS was performed 60 min post-L-DOPA.

[6] = test system: 6-OHDA-lesioned rats, forelimb akinesia; assay: Experiment 1: forepaw adjusting steps (FAS); type: in vivo, rat; conditions: LD 6 mg/kg alone or with VZD 10/20 mg/kg
Description: Conti et al., 2014). […] Forepaw adjusting steps (FAS): The FAS test is a measure of forelimb akinesia performed according to previous protocols (Bishop et al., 2012; Chang et al., 1999). Data are presented as mean percent intact stepping where the sum of the total steps with the lesioned forepaw was divided by the total steps with the unlesioned forepaw multiplied by 100. Lower percent intact scores indicate greater forelimb akinesia. Prior to baseline, rats received 2 acclimation periods. On-treatment FAS was performed 60 min post-L-DOPA.

[7] = in vivo; cited from earlier work
[8] = test system: striatum and DRN monoamines and metabolites; assay: Experiment 1: HPLC of striatal and dorsal raphe tissue monoamines; type: in vivo, rat
Method: Rats (n=30) were rendered hemi-parkinsonian with unilateral 6-OHDA lesions of the left MFB. Three-weeks post-lesion, animals were divided into 2 equally disabled groups, measured by forepaw adjusting steps (FAS, see below). One group (n=8) began receiving 14 days of daily vehicle (0.9% NaCl+0.1% ascorbic acid) and the other (n=22) received L-DOPA methyl ester (6 mg/kg, s.c.; Sigma)+DL-serine 2-(2,3,4-trihydroxybenzyl) hydrazine hydrochloride (benserazide; 15 mg/kg, s.c.; Sigma), hereafter L-DOPA, dissolved in vehicle at a volume of 1 mL/kg. […] Thereafter, L-DOPA-treated animals with Axial, Limb, and Orolingual (ALO) AIMs (see description below, FIG. 1A)<30 were excluded from the study and the remaining L-DOPA-treated animals were divided into 3 equally dyskinetic groups. […] Daily injections continued over 23 days, with behavior assayed on Days 15, 22, 29, and 36. On Day 37, animals were killed 60 min post-treatment. Left and right dorsal striata and DRN were dissected and flash frozen for HPLC analyses.
High-performance liquid chromatography (HPLC): HPLC, a method for semi-automated catecholamine analysis with coulometric detection, was performed according to prior protocols (Bishop et al., 2009) to determine the tissue levels of monoamines, their metabolites, and monoamine turnover in the striatum and DRN. The limit of detection for DOPAC, DA, 5-hydroxyindoleacetic acid (5-HIAA) and 5-HT was 10^−10 M. Final oxidation current values were plotted on a standard curve from 10^−6 M to 10^−9 M and expressed as pg of monoamine or metabolite per mg of tissue unless otherwise specified.
On the final treatment day, animals were sacrificed 60 min post-LD treatment and left and right striata and dorsal raphe nucleus (DRN) were collected for high performance liquid chromatography (HPLC) analysis. Values (means±standard mean error) are expressed as picograms of monoamine or metabolite per milligram wet tissue weight. Turnover estimates were determined by dividing a subject's metabolite value by its corresponding monoamine.

[9] = test system: 6-OHDA-lesioned rats, L-DOPA-induced dyskinesia; assay: Experiment 1: AIMs, established LID in L-DOPA-primed hemi-parkinsonian rats; type: in vivo, rat; conditions: LD 6 mg/kg s.c. vs L-DOPA vehicle
[10] = test system: striatal c-Fos, PPD, PPE, PPT, 5-HT1AR mRNA; assay: Experiment 2: real-time RT-PCR of striatal gene expression
[11] = test system: lesion-induced motor deficits; assay: FIG. 23D: % intact stepping; type: in vivo; conditions: L-DOPA alone or with AMA 40 mg/kg and/or VZD 2.5 mg/kg
[12] = test system: L-DOPA-primed 6-OHDA-lesioned rats; 5-HT1BR; assay: Experiment 3: AIMs with 5-HT1BR antagonist NAS-181; type: in vivo, rat; conditions: VZD 10 mg/kg, NAS-181 3.0 mg/kg, LD 6 mg/kg s.c.
Method: All 6-OHDA-lesioned rats (n=17) were tested on the FAS prior to treatment regimens to establish baseline motor performance. Three-weeks post-surgery, all rats were primed with L-DOPA (6 mg/kg, s.c.) for 14 days.
Beginning 10 min post-treatment, a trained and blinded observer assigned a severity score (0-4) to each of the ALO AIMs based on 1 min ratings every 10 min for 3 h: 0, not present; 1, present from 1-29 s; 2, present 30-59s; 3, present all 60 s, but interruptible by a cylinder tap; 4, present 60 s and not interruptible by a cylinder tap.

[13] = test system: L-DOPA-primed 6-OHDA-lesioned rats; 5-HT1AR; conditions: VZD 10 mg/kg, WAY 0.5 mg/kg, LD 6 mg/kg s.c.
[14] = Dorsal Raphe Nucleus, VZD(0)+LD(6) mg/kg s.c.

Br.CCCN(CCC)C1CCc2cccc(O)c2C1 (stereo not drawn) [8-OH-DPAT, 8-hydroxy-2-(dipropylamino) tetralin hydrobromide]
increase of [35S]GTPyS binding compared to vehicle [1]: eightfold | spontaneous firing of DRN 5-HT neuron [2]: suppressed the spontaneous firing of a DRN neuron

CN(C)CCC[C@@]1(c2ccc(F)cc2)OCc2cc(C#N)ccc21 [Escitalopram]
forelimb akinesia / L-DOPA therapeutic (prokinetic) efficacy [3]: affected L-DOPA therapeutic efficacy | LIDs severity [4]: significantly reduced LIDs severity

N[C@@H](Cc1ccc(O)c(O)c1)C(=O)O [L-DOPA, L-3,4-dihydroxyphenylalanine]
FAS vs baseline [5]: significant increases in motor ability on each test day | FAS motor performance vs baseline [6]: significant improvements on motor performance over baseline | fraction crossing the blood-brain barrier [7]: 5-10% | 5-HIAA [8, 14]: 2778 pg/mg wet tissue weight | 5-HT [8, 14]: 5457 pg/mg wet tissue weight | 5-HT Turnover [8, 14]: 0.57 | DA [8, 14]: 112 pg/mg wet tissue weight | DA Turnover [8, 14]: 10.3 | DOPAC [8, 14]: 1114 pg/mg wet tissue weight | DRN DA, DOPAC and DA Turnover ([8]; LD 6 mg/kg): significantly increased DRN levels of DA, DOPAC and DA Turnover | LID during 14 days of priming [9]: significantly greater LID | striatal PPE mRNA ([10]; lesioned striata, LD 6 mg/kg, VZD 20 mg/kg, day 23): significantly increased PPE in the lesioned striata | striatal PPD mRNA ([10]; lesioned striata, LD 6 mg/kg, VZD 10/20 mg/kg, day 23): significantly increased PPD in the lesioned striata | striatal c-Fos mRNA ([10]; lesioned striata, LD 6 mg/kg, VZD 10 or 20 mg/kg, day 23): potentiated c-Fos in lesioned striata | striatal PPT mRNA ([10]; rat, in vivo): did not increase striatal PPT | % intact stepping [11]: reversed lesion-induced motor deficits

C1=C(CN2CCOCC2)COc2c1cccc2OC[C@H]1CNCCO1.CS(=O)(=O)O [NAS-181, (R)-(+)-2-(3-morpholinomethyl-2H-chromen-8-yl) oxymethyl-morpholine methane-sulfonate]
ALO AIMs [12]: did not significantly alter AIMs or their reduction by Vilazodone

COc1ccccc1N1CCN(CCN(C(=O)C2CCCCC2)c2ccccn2)CC1.O=C(O)/C=C\C(=O)O [WAY100635, N-[2-[4(2-Methoxyphenyl)-1-piperazinyl]ethyl]-N-2-pyridinylcyclohexanecarboxamide maleate salt]
summed ALO AIMs [13]: partially reversed the anti-dyskinetic efficacy of Vilazodone | spontaneous firing of DRN 5-HT neuron [2]: return to baseline firing | LIDs severity [4]: reverses the beneficial effects of vilazodone on LIDs

From patent publication US12285426B2, “Combination serotonin specific reuptake inhibitor and serotonin 1A receptor partial agonist for reducing L-DOPA-induced dyskinesia” (The Research Foundation for The State University of new York, priority 2018, dated 2025)
